# PubChem BioAssay (NCI)
#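 96-well plates; 48 h exposure; 5 concentrations. Endpoints by linear interpolation between flanking doses. Not reached: highest tested concentration assigned. TGI denotes the concentration required for complete inhibition of growth.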
# Assays:
# Assay in all cases: NCI anticancer screen, dose series, 48 h
# 786-0 renal = system: 786-0 renal
# A498 renal = system: A498 renal
# A549 NSCLC = system: A549 NSCLC
# ACHN renal = system: ACHN renal
# BT-549 breast = system: BT-549 breast
# CAKI-1 renal = system: CAKI-1 renal
# CCRF-CEM leukemia = system: CCRF-CEM leukemia
# COLO 205 colon = system: COLO 205 colon
# DU-145 prostate = system: DU-145 prostate
# EKVX NSCLC = system: EKVX NSCLC
# HCC-2998 colon = system: HCC-2998 colon
# HCT-116 colon = system: HCT-116 colon
# HCT-15 colon = system: HCT-15 colon
# HL-60(TB) leukemia = system: HL-60(TB) leukemia
# HOP-62 NSCLC = system: HOP-62 NSCLC
# HOP-92 NSCLC = system: HOP-92 NSCLC
# HS 578T breast = system: HS 578T breast
# HT29 colon = system: HT29 colon
# IGROV1 ovarian = system: IGROV1 ovarian
# K-562 leukemia = system: K-562 leukemia
# KM12 colon = system: KM12 colon
# LOX IMVI melanoma = system: LOX IMVI melanoma
# MALME-3M melanoma = system: MALME-3M melanoma
# MCF7 breast = system: MCF7 breast
# MDA-MB-231 breast = system: MDA-MB-231 breast
# MDA-MB-435 = system: MDA-MB-435
# MDA-N = system: MDA-N
# MOLT-4 leukemia = system: MOLT-4 leukemia
# NCI-H226 lung = system: NCI-H226 lung
# NCI-H23 lung = system: NCI-H23 lung
# NCI-H460 lung = system: NCI-H460 lung
# NCI-H522 lung = system: NCI-H522 lung
# NCI/ADR-RES ovarian = system: NCI/ADR-RES ovarian
# OVCAR-3 ovarian = system: OVCAR-3 ovarian
# OVCAR-4 ovarian = system: OVCAR-4 ovarian
# OVCAR-5 ovarian = system: OVCAR-5 ovarian
# OVCAR-8 ovarian = system: OVCAR-8 ovarian
# PC-3 prostate = system: PC-3 prostate
# RPMI-8226 leukemia = system: RPMI-8226 leukemia
# RXF 393 renal = system: RXF 393 renal
# SF-268 CNS = system: SF-268 CNS
# SF-295 CNS = system: SF-295 CNS
# SF-539 CNS = system: SF-539 CNS
# SK-MEL-2 melanoma = system: SK-MEL-2 melanoma
# SK-MEL-28 melanoma = system: SK-MEL-28 melanoma
# SK-MEL-5 melanoma = system: SK-MEL-5 melanoma
# SK-OV-3 ovarian = system: SK-OV-3 ovarian
# SN12C renal = system: SN12C renal
# SNB-19 CNS = system: SNB-19 CNS
# SNB-75 CNS = system: SNB-75 CNS
# SR leukemia = system: SR leukemia
# SW-620 colon = system: SW-620 colon
# T-47D breast = system: T-47D breast
# TK-10 renal = system: TK-10 renal
# U251 CNS = system: U251 CNS
# UACC-257 melanoma = system: UACC-257 melanoma
# UACC-62 melanoma = system: UACC-62 melanoma
# UO-31 renal = system: UO-31 renal
# M14 melanoma = system: M14 melanoma
structure (smiles),measurement,setting,value
CN(C)c1ccc(/C=C2\C[C@H]3[C@@H]4CCc5cc(OCCN6CCCC6)ccc5[C@H]4CC[C@]3(C)[C@H]2O)cc1,TGI,786-0 renal,5.05 µM
same,TGI,A498 renal,34.9 µM
same,TGI,A549 NSCLC,20.3 µM
same,TGI,ACHN renal,42.9 µM
same,TGI,BT-549 breast,31.1 µM
same,TGI,CAKI-1 renal,30 µM
same,TGI,CCRF-CEM leukemia,5.99 µM
same,TGI,COLO 205 colon,27.9 µM
same,TGI,DU-145 prostate,26.2 µM
same,TGI,EKVX NSCLC,41.8 µM
same,TGI,HCC-2998 colon,14.5 µM
same,TGI,HCT-116 colon,8.78 µM
same,TGI,HCT-15 colon,> 100 µM
same,TGI,HL-60(TB) leukemia,43.3 µM
same,TGI,HOP-62 NSCLC,35.5 µM
same,TGI,HOP-92 NSCLC,24.7 µM
same,TGI,HS 578T breast,> 61.9 µM
same,TGI,HT29 colon,> 25.7 µM
same,TGI,IGROV1 ovarian,39.7 µM
same,TGI,K-562 leukemia,> 37.5 µM
same,TGI,KM12 colon,> 60.2 µM
same,TGI,LOX IMVI melanoma,> 100 µM
same,TGI,MALME-3M melanoma,> 30.2 µM
same,TGI,MCF7 breast,30.1 µM
same,TGI,MDA-MB-231 breast,16.4 µM
same,TGI,MDA-MB-435,39 µM
same,TGI,MDA-N,46.3 µM
same,TGI,MOLT-4 leukemia,46 µM
same,TGI,NCI-H226 lung,37.4 µM
same,TGI,NCI-H23 lung,31.4 µM
same,TGI,NCI-H460 lung,30.2 µM
same,TGI,NCI-H522 lung,7.69 µM
same,TGI,NCI/ADR-RES ovarian,53.6 µM
same,TGI,OVCAR-3 ovarian,30.9 µM
same,TGI,OVCAR-4 ovarian,> 58.8 µM
same,TGI,OVCAR-5 ovarian,31.1 µM
same,TGI,OVCAR-8 ovarian,18.9 µM
same,TGI,PC-3 prostate,48.9 µM
same,TGI,RPMI-8226 leukemia,> 63.8 µM
same,TGI,RXF 393 renal,33.9 µM
same,TGI,SF-268 CNS,61.7 µM
same,TGI,SF-295 CNS,30.4 µM
same,TGI,SF-539 CNS,22 µM
same,TGI,SK-MEL-2 melanoma,34.8 µM
same,TGI,SK-MEL-28 melanoma,11.9 µM
same,TGI,SK-MEL-5 melanoma,22.9 µM
same,TGI,SK-OV-3 ovarian,31.7 µM
same,TGI,SN12C renal,47.4 µM
same,TGI,SNB-19 CNS,46.1 µM
same,TGI,SNB-75 CNS,28 µM
same,TGI,SR leukemia,10.2 µM
same,TGI,SW-620 colon,18.6 µM
same,TGI,T-47D breast,47.5 µM
same,TGI,TK-10 renal,11.6 µM
same,TGI,U251 CNS,17.6 µM
same,TGI,UACC-257 melanoma,19.5 µM
same,TGI,UACC-62 melanoma,39.5 µM
same,TGI,UO-31 renal,16.8 µM
CC(C)(C)OC(=O)NC(Cc1ccc(OCc2ccccc2)cc1)C(=O)NC(COCc1ccccc1)C(=O)Oc1c(Cl)c(Cl)c(Cl)c(Cl)c1Cl (stereo unspecified),TGI,A498 renal,53.2 µM
same,TGI,A549 NSCLC,89.7 µM
same,TGI,ACHN renal,76.6 µM
same,TGI,BT-549 breast,38.3 µM
same,TGI,CAKI-1 renal,47.4 µM
same,TGI,CCRF-CEM leukemia,> 100 µM
same,TGI,COLO 205 colon,36.5 µM
same,TGI,DU-145 prostate,46.8 µM
same,TGI,EKVX NSCLC,82.4 µM
same,TGI,HCC-2998 colon,40.5 µM
same,TGI,HCT-116 colon,30.1 µM
same,TGI,HCT-15 colon,33.5 µM
same,TGI,HL-60(TB) leukemia,> 100 µM
same,TGI,HOP-62 NSCLC,32.9 µM
same,TGI,HOP-92 NSCLC,32.8 µM
same,TGI,HS 578T breast,41.8 µM
same,TGI,HT29 colon,69.7 µM
same,TGI,IGROV1 ovarian,41.7 µM
same,TGI,K-562 leukemia,> 100 µM
same,TGI,KM12 colon,39 µM
same,TGI,LOX IMVI melanoma,53 µM
same,TGI,M14 melanoma,42.9 µM
same,TGI,MALME-3M melanoma,68.2 µM
same,TGI,MCF7 breast,48.2 µM
same,TGI,MDA-MB-231 breast,27.6 µM
same,TGI,MDA-MB-435,56.7 µM
same,TGI,MDA-N,80.8 µM
same,TGI,MOLT-4 leukemia,> 100 µM
same,TGI,NCI-H226 lung,54.5 µM
same,TGI,NCI-H23 lung,35.6 µM
same,TGI,NCI-H460 lung,36.7 µM
same,TGI,NCI-H522 lung,42 µM
same,TGI,NCI/ADR-RES ovarian,50 µM
same,TGI,OVCAR-3 ovarian,28.9 µM
same,TGI,OVCAR-4 ovarian,85.3 µM
same,TGI,OVCAR-5 ovarian,67.3 µM
same,TGI,OVCAR-8 ovarian,52.6 µM
same,TGI,PC-3 prostate,40.4 µM
same,TGI,RPMI-8226 leukemia,> 100 µM
same,TGI,RXF 393 renal,63.9 µM
same,TGI,SF-268 CNS,65.6 µM
same,TGI,SF-295 CNS,52.4 µM
same,TGI,SF-539 CNS,29.7 µM
same,TGI,SK-MEL-2 melanoma,36.6 µM
same,TGI,SK-MEL-28 melanoma,71.8 µM
same,TGI,SK-MEL-5 melanoma,33.7 µM
same,TGI,SK-OV-3 ovarian,46.9 µM
same,TGI,SN12C renal,62.4 µM
same,TGI,SNB-19 CNS,> 100 µM
same,TGI,SNB-75 CNS,> 100 µM
same,TGI,SR leukemia,> 100 µM
same,TGI,SW-620 colon,73 µM
same,TGI,T-47D breast,88.5 µM
same,TGI,TK-10 renal,85.8 µM
same,TGI,U251 CNS,38.1 µM
same,TGI,UACC-257 melanoma,84.8 µM
same,TGI,UACC-62 melanoma,32.3 µM
same,TGI,UO-31 renal,30.7 µM
